Laboratory results published in patent US20250025438A1, “Derivative of aspartic acid and use thereof in treatment of metabolic diseases such as hepatic fibrosis and non-alcoholic hepatitis” (SHENZHEN JINGTAI TECHNOLOGY CO., LTD., priority 2021, published 2025).
Counter-ions that a name gives are not always drawn.

Legend:
IL-1β = test: In vitro efficacy in semi-activated LX2 cells, qPCR: IL-1β; type: cell-based; details: Homo sapiens, LX-2, 50 µM, 48 hours, Q-PCR, read-out: IL-1β mRNA inhibition rate
α-SMA = test: In vitro efficacy in semi-activated LX2 cells, qPCR: α-SMA; type: cell-based; details: 48 hours, Q-PCR; for inhibition at 50 µM: read-out: α-SMA mRNA inhibition rate; for inhibition of the expression of α-SMA at the mRNA level: Table 2
Procedure, shortened: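 Compound at 50 µM is added to adherent LX2 stellate cells and left for 48 hours before total RNA is isolated. Transcript levels are then measured by SYBR Green real-time PCR on cDNA and expressed by relative quantification.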

[1] = test system: carbon tetrachloride-induced liver fibrosis; test: Carbon tetrachloride-induced liver fibrosis model in mice, Masson staining; type: in vivo, C57BL/6 wild-type mice; details: CCl4 mice
Procedure: Long-term intraperitoneal injection of carbon tetrachloride (CCl4) induced reversible liver fibrosis, which was often used to screen and evaluate anti-hepatic fibrosis drugs. C57BL/6 wild-type mice were randomly divided into control group, carbon tetrachloride group and treatment group. The treatments were as follows:
Mice in the carbon tetrachloride group: The animals were intraperitoneally injected with carbon tetrachloride in a total amount of 0.5 μL/g, diluted with corn oil to 10 μL/g, 3 times/week. After 4 weeks of modeling, the carbon tetrachloride group was randomly divided into groups, plus the negative control group: • (1) Mice in the negative control group: The animals were intraperitoneally injected with corn oil solution, 10 μL/g, 3 times/week; at the same time, 200 μL of drinking water was administered by gavage. • (2) Mice in the carbon tetrachloride group: The animals were intraperitoneally injected with carbon tetrachloride in a total amount of 0.5 μL/g, diluted with corn oil to 10 μL/g, 3 times/week; 200 μL of normal saline was administered by gavage. • (3) Mice in the aspartic acid group: The animals were intraperitoneally injected with carbon tetrachloride in a total amount of 0.5 μL/g, diluted with corn oil to 10 μL/g, 3 times/week; 30 mg/kg aspartic acid was administered by gavage. • (4) Mice in the treatment group: The animals were intraperitoneally injected with carbon tetrachloride in a total amount of 0.5 μL/g, diluted with corn oil to 10 μL/g, 3 times/week; different doses of the compounds of the present invention were administered by gavage.
The animals were treated for 4 weeks, and blood was collected from the eyeballs 48 hours after the last injection of carbon tetrachloride. About 1 mL of whole blood per animal was collected in an anticoagulant tube, and immediately placed on ice and allowed to stand for 1 hour. Centrifugation was performed at 4° C., 3000 rpm for 15 min. About 0.4 mL of the supernatant was taken and added into an EP tube, in which it should be carefully avoided to pipet the lower layer liquid, and then it was stored in a −80° C. refrigerator.
It should be noted to use new paraffin when renewed; • (5 Embedding: Melted paraffin (60° C.) was added into a small iron trough, the paraffin-soaked tissue was taken and placed therein, the embedding box at the side with label was buckled, and the melted paraffin was added again. It should be noted that air bubbles should be removed during the operation process; • (6 The paraffin-embedded tissue was placed on an ice table of an automatic embedding machine. After the paraffin solidified, it was placed in a −20° C. refrigerator for further cooling.
• (1 The wax block with embedded tissue was placed at the corresponding position of a microtome; • (2 The slice thickness was adjusted to the thickness required for the experiment. Generally, 3 to 4 μm should be used for slicing; • (3 6 to 8 Consecutive tissue sections were gently placed and fully stretched in a 55° C. water bath expander; • (4 The continuous tissue sections were gently separated by tweezers; • (5 A wax section that was completely stretched and had no wrinkles in the tissue was selected, and taken out with an adhesive slide so that the section was attached to the slide;
Masson staining is one of the classic and authoritative staining methods for collagen fiber staining. Collagen fibers appear […].

[2] = 20 mg/kg/d by gavage, 4 weeks, vs untreated group and aspartic acid group (30 mg/kg/d), FIG. 6

For `COC(=O)[C@@H](N)CC(=O)O` [Compound 4], the inhibition at 50 µM (IL-1β) was 1 to 10%, the inhibition at 50 µM (α-SMA) was 25 to 50% and the “inhibition of the expression of α-SMA at the mRNA level” value (“inhibition of the expression of α-SMA” below) (α-SMA) was “could inhibit”. The “collagen deposition in the mouse liver tissue (Masson)” value (“collagen deposition” for short) [1, 2] was “reduced”.
In the case of `COC(=O)C[C@H](N)C(=O)O` [Compound 6], the inhibition at 50 µM (IL-1β) is reported as 1 to 10%, the inhibition at 50 µM (α-SMA) is reported as 10 to 25% and the “inhibition of the expression of α-SMA” value (α-SMA) is reported as “could inhibit”. The “collagen deposition” value ([1]; 10 mg/kg/bid, 50 mg/kg/bid, 150 mg/kg/bid, vs untreated group, FIG. 7) was “decreased” and the “collagen deposition” value ([1]; 25 mg/kg/d by gavage, 4 weeks, vs untreated group and aspartic acid group (30 mg/kg/d), FIG. 6) was “reduced”.
For `N[C@@H](CCC(=O)O)C(=O)O` [Compound 47], the inhibition at 50 µM (IL-1β) was 1 to 10% and the “collagen deposition” value [1, 2] was “reduced”.
For `COC(=O)C[C@H](N)C(=O)OCOC(=O)[C@@H](N)CC(=O)OC` [Compound 54, 4-dimethyl O′1,01-methylene (2S,2'S)-bis (2-aminosuccinate) hydrochloride], the “inhibition of the expression of α-SMA” value (α-SMA) was “could inhibit” and the “collagen deposition” value ([1]; 40 mg/kg/d by gavage, 4 weeks, vs untreated group and aspartic acid group (30 mg/kg/d), FIG. 6) was “reduced”.
